Assay results taken from patent US11820994B2, “Methods of inducing apomictic or sexual reproduction” (priority 2018, dated 2023).

How the values were obtained:
B. stricta ovules [1] = assay: In vivo floral dip in epiBL solution, dyad formation; settings: flower buds dipped 3 h in 10 μmol L−1 epiBL; controls 7%
Protocol: (§1) FIG. 40 Frequencies of B. stricta ovules (dyads and tetrads) that were undergoing dyad formation (sexual or diplosporous) at the end of pistil treatment as affected by i) a 3 h in vivo floral dip in solutions containing epibrassinolide (epiBL) or ii) culturing of pistils in epiBL-containing media with in vitro culture of pistils initiated when pistils were in the 1-I or the 2-III to 2-IV stages. Numbers of correctly-staged ovules (dyads plus tetrads) per data point averaged 53 and ranged from 27-82.
(§2) epiBL is the naturally occurring and most biologically active form of BR. Applications of epiBL to pistils of sexual B. stricta, in vivo or in vitro, caused MMC to abort meiosis and instead produce dyads (FIG. 40). […] This induced 31% dyad formation, compared to 7% for the controls (a frequency often observed in sexual plants where they represent an intermediate stage of sexual meiosis). A similar dyad induction frequency (29%) was obtained by culturing 1-I to 2-II staged B. stricta pistils on a 0.1 μmol L−1 epiBL medium for 2 d (FIG. 40).

B. stricta ovules [2] = assay: In vitro culture of pistils on epiBL-containing medium, dyad formation; assay type: cell-based
Protocol: as §1, §2

Arabidopsis ovules [3] = assay: Topical application of BR or glucose to intact pistils, apomeiosis induction; assay type: in vivo, Arabidopsis thaliana
Protocol: Most of the functional megaspores from these treatments originated by Taraxacum-type diplospory (FIG. 42) with frequent subepidermal layer of cells with or without a parietal cell. A few cases of Antennaria-type diplospory were also observed (FIG. 43).
(§3) Cytological Analyses. Arabidopsis, Drummond's rockcress and cowpea floral buds were fixed in FAA (v/v: 3.7% formaldehyde, 5% acetic acid, 50% ethanol) for 48 h and cleared in 2:1 benzyl benzoate dibutyl phthalate (BBDP) (80): 1) 70% EtOH, 30 min; 95% EtOH, ≥4 h (2×); 95% EtOH:BBDP (2:1), 2 h; 95% EtOH:BBDP (1:2), 4 h; BBDP, 4 h; BBDP, overnight. Cleared pistils were mounted (up to 16 per slide) and measured from the pedicel base to the top of the stigma. […] DAPI fluorescence was detected with a Zeiss LSM 510 confocal microscope with excitation at 408 nm, dichroic reflector at HFT488 nm and detection at 450-650 nm. […]
Presence of the following ovule characteristics were recorded: MMCs, Antennaria type diplosporous 1-2 nucleate ES, sexual or Taraxacum type diplosporous dyads, sexual tetrads, sexual or Taraxacum type diplosporous 1-2 nucleate ES, AI and AES. […]
For topical applications, sepals of floral buds were separated, and pistil lengths were measured using a dissecting microscope. […]

Arabidopsis ovules [4] = assay: Pistil culture experiments with 5-azaC, BR (epiBL), DTBA, H2O2 and sugars, meiosis to apomeiosis; assay type: cell-based, Arabidopsis thaliana; settings: BR alone
From the text: (§4) To address redox instability, pistils were exposed to the antioxidant DTBA, an antioxidant that protects thiol groups in proteins from oxidization. To address bioenergetic stress, pistils were exposed to sugars. Glucose signaling is one of the most ancient and central signaling pathways in animals and plants and is involved in gene expression, primary and secondary metabolism, and regulation of growth and development (98). In Arabidopsis, rates of glycolysis and mitochondrial bioenergetics are sensed by TOR, which then control root meristem activation (18). If sufficient sugar is supplied, TOR should be activated. Active TOR protects BZR1 and other important BR-regulated enzymes from degradation, and this leads to plant growth (25). Factorial experiments were designed to test the effects of sucrose, glucose, epiBL, DTBA and 5-azaC on apomixis induction. These were designed for each of three sexual species, B. stricta, arabidopsis and cowpea. The experiments were performed and ratios of apomeiosis to meiosis were documented.
Two factorial experiments were conducted using immature arabidopsis pistils. In the first experiment, no 5-azaC, 5-azaC in the pretreatment only, or 5-azaC in both the pretreatment and the tissue culture medium were tested.
Cytological Analyses. Arabidopsis, Drummond's rockcress and cowpea floral buds were fixed in FAA (v/v: 3.7% formaldehyde, 5% acetic acid, 50% ethanol) for 48 h and cleared in 2:1 benzyl benzoate dibutyl phthalate (BBDP) (80): 1) 70% EtOH, 30 min; 95% EtOH, ≥4 h (2×); 95% EtOH:BBDP (2:1), 2 h; 95% EtOH:BBDP (1:2), 4 h; BBDP, 4 h; BBDP, overnight. Cleared pistils were mounted (up to 16 per slide) and measured from the pedicel base to the top of the stigma. Ovule development stages were studied using a BX53 microscope equipped with differential interference contrast optics and a MicroFire 599809 camera (Olympus, Center Valley, Pa., USA). For chromosome staining, pistils were soaked in 95% ethanol that contained 0.1 mg L^−1 4′,6-diamidino-2-phenylindole (DAPI). Callose was stained by soaking DAPI stained pistils in aqueous aniline blue (Millipore Sigma, Darmstadt, Germany) (124). DAPI fluorescence was detected with a Zeiss LSM 510 confocal microscope with excitation at 408 nm, dichroic reflector at HFT488 nm and detection at 450-650 nm. Callose was distinguished from DAPI by detection at 550-650 nm.
Presence of the following ovule characteristics were recorded: MMCs, Antennaria type diplosporous 1-2 nucleate ES, sexual or Taraxacum type diplosporous dyads, sexual tetrads, sexual or Taraxacum type diplosporous 1-2 nucleate ES, AI and AES. Developmental stages for the majority of ovules per pistil were recorded, and pistil lengths for the following stages (125) were recorded: 1-II, ovule meristems protruding from placentae (precedes MMC formation); 2-IV, meiosis; 3-III, vacuole in immature ES beginning to appear; 4-VI, nuclear divisions in endosperm underway. To determine average timing of meiosis onset, pistils primarily containing premeiotic (2-III) ovules were located under low light conditions 1 h before the lights came on in the morning. Corresponding sepals were marked with a small point permanent marker. Pistils were then randomly harvested for analysis when the lights came on and 3 h thereafter.
Pistils were aseptically excised, but not disinfested, at the early pre-MMC to MMC stages and incubated in vitro. The basal culture medium for arabidopsis and Drummond's rockcress was MS (126) (Caisson Laboratories, Inc., Smithfield, UT USA) with 20 g L^−1 sucrose or glucose and solidified with 1.45 g L^−1 Phytogel (MilliporeSigma).

[5] = tested on: B. stricta (Drummond's rockcress) ovules; assay: Pistil culture factorial experiment with sucrose, glucose, epiBL, DTBA and 5-azaC; assay type: cell-based, Boechera stricta
From the text: as §4
Both the carbohydrate variable and the other components variable were highly significant (P<0.001). Additionally, three ovules from the sucrose plus epiBL treatment (epiBL in the pretreatment and in the medium) had formed aposporous embryo sacs (AES). Also, two ovules, one from the sucrose-epiBL-epiBL treatment and one from the glucose-DTBA-DTBA treatment, had formed Antennaria-type diplosporous embryo sacs (FIGS. 48A-48H).
as §3
Presence of the following ovule characteristics were recorded: MMCs, Antennaria type diplosporous 1-2 nucleate ES, sexual or Taraxacum type diplosporous dyads, sexual tetrads, sexual or Taraxacum type diplosporous 1-2 nucleate ES, AI and AES. Developmental stages for the majority of ovules per pistil were recorded, and pistil lengths for the following stages (125) were recorded: 1-II, ovule meristems protruding from placentae (precedes MMC formation); 2-IV, meiosis; 3-III, vacuole in immature ES beginning to appear; 4-VI, nuclear divisions in endosperm underway. […]

Arabidopsis embryo sacs = assay: Induction of parthenogenesis and autonomous endosperm formation in pistils; assay type: cell-based; settings: 2 μM BR or 50 mM glucose prior to central cell callose deposition
Protocol: (§5) Scale bars: 50 μm (FIG. 51A), 20 μm (FIGS. 51B-51E).
FIG. 52 Parthenogenesis in putatively diploid Arabidopsis embryo sacs induced by treatment of pistils in emasculated flowers with 2 μM BR or 50 mM glucose. To prevent fertilization, stigmas of pistils were clipped while anthers were immature. These pistils were also treated premeiotically with BR and glucose.
Functional apomixis requires not only apomeiosis but also parthenogenesis and, in plants, endosperm formation.

Arabidopsis anthers = assay: Anthers cultured in vitro with epiBL, unreduced pollen microspores; assay type: cell-based; settings: 0.1 μM epiBL on 2% sucrose medium for 24 h
From the text: as §5

SMILES: CC(C)[C@@H](C)[C@@H](O)[C@H](O)[C@@H](C)[C@H]1CC[C@H]2[C@@H]3COC(=O)[C@H]4C[C@H](O)[C@H](O)C[C@]4(C)[C@H]3CC[C@]12C [epiBL, epibrassinolide]
- dyad formation (B. stricta ovules [1]): 31%
- dyad induction frequency (B. stricta ovules [2]; 1-I to 2-II staged pistils on 0.1 μmol L−1 epiBL medium for 2 d): 29%
- unreduced embryo sacs forming from epiBL-induced dyads (B. stricta ovules [2]; epiBL treatments): only rarely observed
- ratios of observed dyads (B. stricta ovules [2]; epiBL treatments (in vivo or in vitro)): 30%
- apomeiotic dyad formation (Arabidopsis ovules [3]; intact pistils treated with BR or glucose solutions (2 μM BR or 50 mM glucose)): induced high frequency apomeiotic dyad formation
- Taraxacum-type diplospory induction (Arabidopsis ovules [3]; topical applications 24 h before or immediately before meiosis): induced Taraxacum-type diplospory
- AES formation (Arabidopsis ovules [4]): Low levels
- ovules with meiosis stopped, MMC undergoing Taraxacum type dyad or ES formation (Arabidopsis ovules [4]): 45%
- number of ovules that formed aposporous embryo sacs (AES) ([5]; sucrose plus epiBL, epiBL in the pretreatment and in the medium): three
- number of ovules that formed Antennaria-type diplosporous embryo sacs ([5]; sucrose-epiBL-epiBL treatment): one
- callose deposition, parthenogenesis and autonomous endosperm formation (Arabidopsis embryo sacs): prevented stress-associated callose deposition and activated parthenogenesis and autonomous endosperm formation
- unreduced pollen microspores (Arabidopsis anthers): Unreduced pollen dyads of microspores
